Measured values as given in patent US11219213B2, “Fungicidal composition” (ADAMA HUIFENG (JIANGSU) LTD., priority 2016, dated 2022).
Where two headings read alike, the source gives them in different places.

System: wheat leaf rust
Test: Toxicity test of benzisothiazolinone combined with flutriafol (bioassay)
Assay type: in vivo
Conditions: for ATI (actual toxicity index): (EC50 of standard/EC50 of test agent)*100, flutriafol as standard; for EC50: median inhibition concentration from control effect, least square method

Structure (SMILES)	ATI (actual toxicity index)	EC50	EC50 (Puccinia triticina, read-out: EC50)
O=c1[nH]sc2ccccc12 [Benzisothiazolinone, benzisothiazolinone]	167.39	40.23 µg/mL	–
OC(Cn1cncn1)(c1ccc(F)cc1)c1ccccc1F (stereo not shown) [Flutriafol, flutriafol]	100.00	–	67.3 µg/mL
